Measured values reported in ChEMBL document CHEMBL1201862, “PubChem BioAssay data set” (2004).
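How tested: cells in 96-well plates exposed to compound for 48 hours at five concentrations. GI50 is the concentration that inhibits growth by half.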 The source made the active and inactive calls. Rule as the data show it: active = GI50 up to about 1.1 µM and inactive = higher.

Experiments:
Experiment in all cases: NCI anticancer screen, dose series, 48 h
[1] = test system: HCC 2998
[2] = test system: TK-10
[3] = test system: HCT-116
[4] = test system: KM12
[5] = test system: NCI-H460
[6] = test system: SK-MEL-2
[7] = test system: UACC-257
[8] = test system: SN12C
[9] = test system: SNB-19
[10] = test system: SF-268
[11] = test system: M14
[12] = test system: U-251
[13] = test system: OVCAR-4
[14] = test system: SF-539
[15] = test system: LOX IMVI
[16] = test system: EKVX
[17] = test system: SR
[18] = test system: CCRF-CEM
[19] = test system: SK-MEL-5
[20] = test system: RXF 393

Measured: GI50

Cc1c2c(n(CCN(C)C)c1C)NN=C(C#N)S2(=O)=O
inactive: [1] > 100 µM | [2] > 100 µM | [3] > 100 µM | [4] > 100 µM | [5] > 100 µM | [6] > 100 µM | [7] > 100 µM | [8] > 100 µM | [9] > 100 µM | [10] > 100 µM | [11] > 100 µM | [12] > 100 µM | [13] > 100 µM | [14] > 100 µM | [15] > 100 µM | [16] > 100 µM

CCOC(=O)C1S(=O)(=O)OCCOS1(=O)=O
inactive: [1] > 100 µM | [2] > 100 µM | [3] > 100 µM | [4] > 100 µM | [6] > 100 µM | [7] > 100 µM | [17] > 100 µM | [18] > 100 µM | [8] > 100 µM | [9] > 100 µM | [10] > 100 µM | [11] > 100 µM | [13] > 100 µM | [14] > 100 µM | [15] > 100 µM | [19] > 100 µM | [16] > 100 µM

CC1=C2c3c(C)ccc4ccc(C)c(c34)C2(O)C(C)C1=O (configuration not stated)
inactive: [1] > 100 µM | [2] > 100 µM | [3] 43.8 µM | [4] 41.3 µM | [5] 60.1 µM | [6] > 100 µM | [7] 53.8 µM | [17] > 100 µM | [8] > 100 µM | [9] 44.3 µM | [10] 63.4 µM | [11] 62.2 µM | [12] > 100 µM | [13] 65 µM | [14] > 100 µM | [15] 45.4 µM | [19] 29.2 µM | [16] 70.8 µM

CC1(C)OCC[C@@H]1[Si](C)(C)C
inactive: [2] 73.5 µM | [3] 92.7 µM | [4] > 100 µM | [5] > 100 µM | [6] > 100 µM | [7] > 100 µM | [18] 26.9 µM | [8] > 100 µM | [9] > 100 µM | [10] 36.2 µM | [11] > 100 µM | [12] > 100 µM | [13] 55.3 µM | [14] > 100 µM | [15] 56.9 µM | [20] 16.5 µM | [19] 26.9 µM | [16] 26.2 µM

CN(/N=C/c1cccc2cccnc12)c1ccc([N+](=O)[O-])cc1[N+](=O)[O-]
inactive: [1] 71 µM | [2] 29 µM | [3] 35.1 µM | [4] > 100 µM | [5] 46 µM | [6] 14.9 µM | [7] 82 µM | [18] > 96.6 µM | [8] 46.1 µM | [9] 11.3 µM | [10] 18.5 µM | [11] 54.7 µM | [12] 13.9 µM | [13] 20.7 µM | [14] 11.3 µM | [15] 57.9 µM | [20] 17.1 µM | [19] 52.5 µM | [16] 45.8 µM

C/C(=C/c1c(C)[nH]c(=O)[nH]c1=O)C(=O)O
inactive: [1] > 1370 µM | [3] > 1370 µM | [4] > 1370 µM | [5] > 1370 µM | [7] > 1370 µM | [18] > 1370 µM | [8] > 1370 µM | [9] > 1370 µM | [10] > 1370 µM | [12] > 1370 µM | [13] > 1370 µM | [14] > 1370 µM | [15] > 1370 µM | [20] > 1370 µM | [19] > 1370 µM | [16] 1290 µM

O=C1C=C(Br)c2c(-c3ccccc3)oc3cccc1c23
inactive: [1] 99.8 µM | [2] 38.1 µM | [3] 25.2 µM | [4] > 53 µM | [5] 37.8 µM | [6] 71.8 µM | [7] > 100 µM | [18] 7.48 µM | [8] > 88.1 µM | [9] 42.1 µM | [10] 20.2 µM | [11] 54.5 µM | [12] 18.4 µM | [13] 7.5 µM | [14] 23.2 µM | [15] > 49 µM | [20] 23.6 µM | [19] 54.3 µM | [16] 25.4 µM

COC(=O)C1CCC(=O)N1C(c1ccc2c(c1)OCO2)c1cc(OC)c(OC)c(OC)c1 (configuration not stated)
inactive: [1] > 100 µM | [2] > 100 µM | [3] > 100 µM | [4] > 100 µM | [5] > 100 µM | [6] > 100 µM | [7] > 100 µM | [17] > 100 µM | [18] > 100 µM | [8] > 100 µM | [9] > 100 µM | [10] > 100 µM | [11] > 100 µM | [12] > 100 µM | [13] > 100 µM | [14] > 100 µM | [15] > 100 µM | [19] > 100 µM | [16] > 100 µM
